Key:
Type in all cases: cell-based
[1] = molecular target: T1, Metabotropic glutamate receptor 1 (Rattus norvegicus, UniProt P23385); assay: In vitro inhibitory concentration required against rat mGluR1a in CHO cells using the CDP-DAG accumulation method: Not active uM
[2] = molecular target: T1, Metabotropic glutamate receptor 1; assay: In vitro inhibition of rat Metabotropic glutamate receptor 1 in CHO cells using the CDP-DAG accumulation method: Not active uM
[3] = molecular target: T1, Metabotropic glutamate receptor 1; assay: In vitro inhibition of rat metabotropic glutamate receptor 1 in CHO cells using the CDP-DAG accumulation method.
[4] = molecular target: T1, Metabotropic glutamate receptor 1; assay: In vitro inhibitory concentration required against rat mGluR1a in CHO cells using the CDP-DAG accumulation method

T1 sequence (P23385 whole entry): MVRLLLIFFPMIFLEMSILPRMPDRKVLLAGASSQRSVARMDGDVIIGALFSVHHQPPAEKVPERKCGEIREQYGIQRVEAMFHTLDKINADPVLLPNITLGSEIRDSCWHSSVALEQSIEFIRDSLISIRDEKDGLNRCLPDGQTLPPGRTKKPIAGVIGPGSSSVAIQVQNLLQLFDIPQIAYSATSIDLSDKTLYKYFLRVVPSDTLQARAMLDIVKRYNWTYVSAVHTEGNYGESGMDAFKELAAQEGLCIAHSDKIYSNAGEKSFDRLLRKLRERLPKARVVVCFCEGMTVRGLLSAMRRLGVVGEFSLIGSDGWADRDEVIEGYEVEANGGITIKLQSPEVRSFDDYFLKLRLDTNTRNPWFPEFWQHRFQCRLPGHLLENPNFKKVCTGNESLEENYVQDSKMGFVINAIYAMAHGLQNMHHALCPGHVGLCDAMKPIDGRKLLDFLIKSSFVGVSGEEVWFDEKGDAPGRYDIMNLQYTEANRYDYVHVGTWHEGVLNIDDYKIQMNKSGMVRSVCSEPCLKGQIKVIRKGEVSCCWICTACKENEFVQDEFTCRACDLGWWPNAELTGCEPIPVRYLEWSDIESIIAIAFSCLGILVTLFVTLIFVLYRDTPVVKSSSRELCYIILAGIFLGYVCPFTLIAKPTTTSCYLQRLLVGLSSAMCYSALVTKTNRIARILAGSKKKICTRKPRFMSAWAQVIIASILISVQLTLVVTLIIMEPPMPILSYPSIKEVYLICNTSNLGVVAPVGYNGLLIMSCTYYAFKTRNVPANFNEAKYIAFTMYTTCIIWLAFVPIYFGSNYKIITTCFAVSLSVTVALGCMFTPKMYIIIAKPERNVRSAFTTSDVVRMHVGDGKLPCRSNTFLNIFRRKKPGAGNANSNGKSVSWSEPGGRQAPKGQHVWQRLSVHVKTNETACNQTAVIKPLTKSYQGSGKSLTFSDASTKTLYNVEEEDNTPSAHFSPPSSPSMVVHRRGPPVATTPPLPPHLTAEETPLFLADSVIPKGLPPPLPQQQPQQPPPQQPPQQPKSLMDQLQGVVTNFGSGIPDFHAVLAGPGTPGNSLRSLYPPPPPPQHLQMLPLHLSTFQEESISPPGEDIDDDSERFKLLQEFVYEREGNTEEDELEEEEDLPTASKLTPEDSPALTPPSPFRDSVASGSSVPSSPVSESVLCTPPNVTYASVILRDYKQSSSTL

Compound	IC50 [3] [nM]	other results
CCCOC(=O)c1c(C)c(C(=O)OC(C)(C)C)c(C)n1CCN1CCOCC1		IC50 [1]: Not Active
CCCOC(=O)c1[nH]c(CN)c(C(=O)OC(C)(C)C)c1C		IC50 [2]: Not Active
CCCOC(=O)c1[nH]c(C(=O)NCC2CC2)c(C(=O)OC(C)(C)C)c1C	2500	
Cc1c(C(=O)OC(C)(C)C)c[nH]c1C(=O)O		IC50 [2]: Not Active
C=CCN1CCN(CCn2c(C)c(C(=O)OC(C)(C)C)c(C)c2C(=O)OCCC)CC1		IC50 [1]: Not Active
Cc1c(C(=O)OC(C)(C)C)c[nH]c1C(=O)OCC1CC1	48	
CCCOC(=O)c1c(C)c(C(=O)OC(C)(C)C)c(C)n1CCCO[Si](c1ccccc1)(c1ccccc1)C(C)(C)C		IC50 [2]: Not Active
Cc1c(C(=O)OC(C)C(C)(C)C)c[nH]c1C(=O)OC(C)CN(C)C (stereo unspecified)	390	
CCCOC(=O)c1[nH]cc(C(=O)OC(C)(C)C)c1C	75	
CCCOC(=O)c1c(C)c(C(=O)OC(C)(C)C)c(C)n1C		IC50 [4]: 1000 nM
CCCOC(=O)c1[nH]c(CNCc2ccccc2)c(C(=O)OC(C)(C)C)c1C		IC50 [2]: Not Active
CCCOC(=O)c1[nH]c(Cl)c(C(=O)OC(C)C(C)(C)C)c1C (stereo unspecified)	160	
CCCOC(=O)c1[nH]c(CO)c(C(=O)OC(C)(C)C)c1C	7900	
CCOC(=O)c1[nH]cc(C(=O)OC(C)(C)C)c1C	340	
CCCOC(=O)c1c(C)c(C(=O)OC(C)(C)C)c(C)n1CC(=O)O		IC50 [2]: Not Active
CCN1CCC(OC(=O)c2[nH]cc(C(=O)OC(C)C(C)(C)C)c2C)C1 (stereo unspecified)	260	

Compound	IC50 [3] [nM]	other results
Cc1c(C(=O)OC(C)C(C)(C)C)c[nH]c1C(=O)Oc1cccnc1 (stereo unspecified)	720	
CCCOC(=O)c1[nH]c(C(=O)OC)c(C(=O)OC(C)(C)C)c1C	3200	
Cc1c(C(=O)OC(C)C(C)(C)C)c[nH]c1C(=O)Oc1ccncn1 (stereo unspecified)	1450	
CCCOC(=O)c1c(C)c(C(=O)OC(C)(C)C)c(C)n1CCO[Si](c1ccccc1)(c1ccccc1)C(C)(C)C		IC50 [2]: Not Active
Cc1c(C(=O)OC(C)C(C)(C)C)c[nH]c1C(=O)OC(C)(C)C (stereo unspecified)	17	
Cc1c(C(=O)OC(C)(C)C)c[nH]c1C(=O)OCc1ccco1	1200	
CCCOC(=O)c1c(C)c(C(=O)OC(C)(C)C)c(C)n1CC(=O)N(C)C		IC50 [2]: Not Active
CCCOC(=O)c1[nH]c(C)c(C(=O)OC(C)C(C)(C)C)c1C (stereo unspecified)	15800	
CCCOC(=O)c1[nH]c(C(=O)O)c(C(=O)OC(C)(C)C)c1C		IC50 [2]: Not Active
CCCOC(=O)c1c(C)c(C(=O)OC(C)(C)C)c(C)n1CN1CCCCC1		IC50 [2]: Not Active
Cc1c(C(=O)OC(C)(C)C)c[nH]c1C(=O)Sc1ccccn1	3000	
CCCOC(=O)c1[nH]c(C=O)c(C(=O)OC(C)(C)C)c1C	2000	
CCCOC(=O)c1[nH]cc(C(=O)OC(C)C(C)(C)C)c1C (stereo unspecified)	4	
Cc1c(C(=O)OC(C)C(C)(C)C)c[nH]c1C(=O)Oc1c(F)c(F)c(F)c(F)c1F (stereo unspecified)	160	
CCCOC(=O)c1c(C)c(C(=O)OC(C)(C)C)c(C)n1C(=O)OC(C)(C)C		IC50 [4]: 2300 nM
Cc1c(C(=O)OC(C)(C)C)c[nH]c1C(=O)OC(C)(C)C	100	

The next lines start with results.

IC50 [3] [nM]	Compound	other results
3200	CCCOC(=O)c1[nH]c(C(=O)Sc2ccccn2)c(C(=O)OC(C)(C)C)c1C	
5800	CCCOC(=O)c1c(C)c(C(=O)OC(C)(C)C)c(C)n1CCCO	
12600	C=CCOC(=O)Cn1c(C)c(C(=O)OC(C)(C)C)c(C)c1C(=O)OCCC	
2700	CCCOC(=O)c1[nH]c(COC(C)=O)c(C(=O)OC(C)(C)C)c1C	

Reference: ChEMBL document CHEMBL1136073, “2,4-Dicarboxy-pyrroles as selective non-competitive mGluR1 antagonists: further characterization of 3,5-dimethyl pyrrole-2,4-dicarboxylic acid 2-propyl ester 4-(1,2,2-trimethyl-propyl) ester and structure-activity relationships” (Bioorg Med Chem Lett, 2003)
